From patent publication US6218384A, “3-Oxo-pyrido(1,2-a)benzimidazole-4-carboxyl and 4-oxo-azepino(1,2-a)benzimidazole-5-carboxyl derivatives useful in treating central nervous system disorders” (Ortho-McNeil Pharmaceutical, Inc., priority 1997, dated 2001)
Where two headings read alike, the source gives them in different places.

Legend:
[1] = molecular target: benzodiazepine site of the GABA-A receptor; assay: Benzodiazepine Receptor Binding Assay (inhibition of 3H-flunitrazepam binding); conditions: ca. 3 nM 3H-flunitrazepam
[2] = Suppression of anxiety (punished licking, conflict test) in the adult male rat; type: in vivo, male rats
Protocol: The anxiolytic activity of selected compounds of the invention was assessed by determining their ability to release (disinhibit) behavior that had been suppressed by punishment (Vogel, J. R. et al. Psychopharmacology 1971, 21, 1). Male rats were deprived of water for 48 hours and were deprived of food for 24 hours prior to testing. After the first 24 hours of water deprivation, they were placed in the conflict chamber for a training period; wherein, they were allowed 200 unpunished licks from a bottle containing tap water. The experiment was run the next day. At the expected time of peak activity, the animals were placed in the chamber and allowed access to tap water. […] Their first lick initiates a 3-min test session. Subsequently,every 20th lick was punished by a 0.2-s shock delivered via the stainless-steel drinking-tube. Vehicle-treated control animals generally were willing to accept a median number of 3 to 8 shocks per test session. […] The Wilcoxon rank-sum test (Mann-WhitneyU-test) was used to test for an increase (p<0.05, 1-tailed) in the median number of shocks in drug-treated groups, compared to a concurrently run vehicle-treated group. The biological assay is considered to be valid if the effects of a known anxiolytic (positive control) are detected, within the same experiment. A compound was considered active if there is a significant difference in the median number of shocks tolerated between the drug-treated group and the control group. The MED was defined as the minimum dose of the drug-treatment as analyzed using the Wilcoxon rank-sum test (SAS; Statistical Analysis System, version 5.16). If the MED value is greater than 10, an active dose of the compound being tested had not been determined.

[3] = Suppression of metrazol-induced convulsions; type: in vivo, male CD1 mice; conditions: mice; for ED50: Mus musculus, 0.5 h; for Metrazol (ip) ED50: 30 min
Protocol: Selected compounds of the invention were tested for their ability to reduce metrazol-induced convulsions in mice (Swinyard, E. A. J. Am. Pharm Assoc. 1949, 38, 201). Male CD1 mice, were fasted at least 16 hours, were divided into equal groups and test compounds or vehicle were administered parenterally. Water was not withheld except during the period of observations. At the time of suspected peak activity, anti-pentylenetetrazol (anti-metrazol) activity was evaluated by the subcutaneous administration of the CD90 dose of metrazol (the dose of metrazol was determined from the dose-response curve producing clonic convulsions in 90% of animals that received the corresponding vehicle for this experiment). Metrazol was dissolved in 0.9% sodium chloride solution, and its dose volume was 10 ml/kg. Animals were housed individually for observation of clonic convulsions, tonic convulsions and death for a period of 30 min. Test compounds that blocked the clonic seizure component of the convulsion in at least 50% of the animals were considered active. The biological assay was considered to be valid if the effects of a known anticonvulsant (positive control) were detected, within the same experiment. Activity was reported as percent reduction of clonic convulsions from the vehicle group. The ED50 values of active compounds were calculated by the method of probits (Finney, D. J. 1971. Probit Analysis. London: Cambridge University Press) and are listed in Tables 1 to 5.

[4] = Table 1, 25° C., 10-20 min, >10,000 = not active
[5] = Table 1, ip, minimum effective dose, >10 = active dose not determined, read-out: Conflict (ip) MED
[6] = Table 1, ip, clonic convulsions after sc CD90 metrazol, >30 = active dose not determined, read-out: Metrazol (ip) ED50
[7] = Table 1, ip, minimum effective dose, >10 = active dose not determined
[8] = Table 1, ip, clonic convulsions after sc CD90 metrazol, >30 = active dose not determined
[9] = Table 5, parenteral, clonic convulsions, read-out: Antimetrazol ED50

**Q.** Which results are given for `O=C1CCN2C(=C1C(=O)Nc1c(F)cc(F)cc1F)Nc1cc(Cl)ccc12` [compound 104]?
**A.** IC50 [1, 4]: 0.013 µM; minimal effective dose [2, 5]: 10 mg/kg; ED50 [3, 6]: 1 mg/kg

**Q.** For “1,2-Dihydro-3-hydroxy-N-phenylpyrido(1,2-a)benzimidazole-4-thiocarboxamide [CP 117]”, which IC50 [1, 4] is on record?
**A.** The IC50 was 0.046 µM.

**Q.** What about the “Conflict (ip) MED” value [2, 7] of the same molecule?
**A.** The value was 10 mg/kg.

**Q.** And the “Metrazol (ip) ED50” value [3, 8]?
**A.** The value was > 30 mg/kg.

**Q.** With `O=C1CCN2C(=C1C(=O)Nc1ncccn1)Nc1ccccc12` [compound 46] as the molecule, how does the IC50 [1, 4] read?
**A.** The IC50 was 0.054 µM.

**Q.** What about the minimal effective dose [2, 5] of the same molecule?
**A.** The minimal effective dose was 10 mg/kg.

**Q.** What about the ED50 [3, 6] of the same molecule?
**A.** Its ED50 is 3 mg/kg.

**Q.** For `O=C1CCN2C(=C1C(=O)Nc1ccc(F)cc1F)Nc1cc(F)ccc12` [compound 111], which IC50 [1, 4] is on record?
**A.** Its IC50 is 0.0033 µM.

**Q.** Which IC50 [1, 4] does the source give for `CN(C)c1ccc(NC(=O)C2=C3Nc4ccccc4N3CCC2=O)cc1` [compound 24] here?
**A.** Its IC50 is 0.27 µM.

**Q.** What about the minimal effective dose [2, 5] of the same molecule?
**A.** The minimal effective dose was 3 mg/kg.

**Q.** What about the ED50 [3, 6] of the same molecule?
**A.** The ED50 was 3 mg/kg.

**Q.** With `O=C1CCN2C(=C1C(=O)Nc1cccc(Cl)c1)Nc1ccccc12` [compound 6] as the molecule, how does the IC50 [1, 4] read?
**A.** The IC50 was 0.12 µM.

**Q.** What about the minimal effective dose [2, 5] of the same molecule?
**A.** The minimal effective dose was > 10 mg/kg.

**Q.** What about the ED50 [3, 6] of the same molecule?
**A.** The ED50 was > 30 mg/kg.

**Q.** Which results are given for `CN(C)c1ccc(NC(=O)C2=C3N(C)c4ccccc4N3CCCC2=O)cc1` [compound 150]?
**A.** IC50 ([1]; Table 5): 3.1 µM; minimal effective dose ([2]; Table 5, minimum effective dose, read-out: Conflict MED): > 10 mg/kg; ED50 [3, 9]: > 10 mg/kg

**Q.** What does the source list for `CN(C)c1ccc(NC(=O)C2=C3Nc4ccccc4N3CCC2=O)c(F)c1` [compound 86]?
**A.** IC50 [1, 4]: 0.12 µM; ED50 [3, 6]: 1 mg/kg

**Q.** For `O=C1CCN2C(=C1C(=O)Nc1nnc(C(F)(F)F)s1)Nc1ccccc12` [compound 74], which IC50 [1, 4] is on record?
**A.** Its IC50 is 10 µM.

**Q.** What about the minimal effective dose [2, 5] of the same molecule?
**A.** Its minimal effective dose is > 10 mg/kg.

**Q.** And the ED50 [3, 6]?
**A.** Its ED50 is 10 mg/kg.

**Q.** For `O=C1CCN2C(=C1C(=O)Nc1ccccc1F)Nc1ccccc12` [compound 20], which IC50 [1, 4] is on record?
**A.** The IC50 was 0.0017 µM.

**Q.** What about the minimal effective dose [2, 5] of the same molecule?
**A.** Its minimal effective dose is 1 mg/kg.

**Q.** And the ED50 [3, 6]?
**A.** Its ED50 is 0.1 mg/kg.

**Q.** Which results are given for `O=C1CCN2C(=C1C(=O)Nc1nccnn1)Nc1ccccc12` [compound 49]?
**A.** IC50 [1, 4]: 0.054 µM; minimal effective dose [2, 5]: > 10 mg/kg; ED50 [3, 6]: 10 mg/kg

**Q.** What does the source list for “N-(2,4-Difluorophenyl)-4-oxo-1,2,3,4-tetrahydro-6H-azepino(1,2-a)benzimidazol-5-carboxamide [CP 155]”?
**A.** IC50 [1, 4]: 0.21 µM; Conflict (ip) MED [2, 7]: > 10 mg/kg; Metrazol (ip) ED50 [3, 8]: 10 to 30 mg/kg

**Q.** Which IC50 [1, 4] does the source give for `O=C1CCN2C(=C1C(=O)Nc1ccc3[nH]ncc3c1)Nc1ccccc12` [compound 50] here?
**A.** The IC50 was 0.096 µM.

**Q.** And the minimal effective dose [2, 5]?
**A.** Its minimal effective dose is 10 mg/kg.

**Q.** What about the ED50 [3, 6] of the same molecule?
**A.** Its ED50 is > 10 mg/kg.

**Q.** With `Cc1ccccc1NC(=O)C1=C2Nc3ccccc3N2CCC1=O` [compound 31] as the molecule, how does the IC50 [1, 4] read?
**A.** The IC50 was 0.23 µM.

**Q.** What about the minimal effective dose [2, 5] of the same molecule?
**A.** The minimal effective dose was 10 mg/kg.

**Q.** And the ED50 [3, 6]?
**A.** Its ED50 is > 30 mg/kg.

**Q.** For `O=C1CCN2C(=C1C(=O)Nc1ccncc1F)Nc1cc(F)ccc12` [compound 110], which IC50 [1, 4] is on record?
**A.** Its IC50 is 0.012 µM.

**Q.** For `O=C1CCN2C(=C1C(=O)Oc1ccccc1)Nc1ccccc12` [compound 118], which IC50 ([1]; Table 2) is on record?
**A.** The IC50 was 0.2 µM.

**Q.** What about the ED50 ([3]; Table 2, ip, clonic convulsions, read-out: Antimetrazol (ip) ED50) of the same molecule?
**A.** The ED50 was 3 mg/kg.

**Q.** Which IC50 [1, 4] does the source give for `O=C1CCN2C(=C1C(=O)Nc1ccccc1)Nc1cc(C(F)(F)F)ccc12` [compound 16] here?
**A.** The IC50 was 0.96 µM.

**Q.** For `O=C1CCN2C(=C1C(=O)Nc1c(Cl)cccc1Cl)Nc1cc(F)ccc12` [compound 112], which IC50 [1, 4] is on record?
**A.** The IC50 was 0.1 µM.

**Q.** Which results are given for `CC1CN2C(=C(C(=O)Nc3ccccc3F)C1=O)N(C)c1ccccc12` (stereo not shown) [compound 132]?
**A.** minimal effective dose ([2]; Table 3, minimum effective dose, read-out: Conflict MED): < 10 mg/kg; ED50 ([3]; Table 3, parenteral, clonic convulsions, read-out: Antimetrazol ED50): 1 mg/kg

**Q.** For `O=C1CCN2C(=C1C(=O)Nc1c(Cl)cc(Cl)cc1Cl)Nc1ccccc12` [compound 101], which minimal effective dose [2, 5] is on record?
**A.** The minimal effective dose was > 10 mg/kg.

**Q.** And the ED50 [3, 6]?
**A.** The ED50 was > 10 mg/kg.

**Q.** What does the source list for `O=C1CCN2C(=C1C(=O)Nc1cccnc1F)Nc1ccccc12` [compound 116]?
**A.** minimal effective dose [2, 5]: > 10 mg/kg; ED50 [3, 6]: 2 mg/kg

**Q.** With `O=C1CCCN2C(=C1C(=O)Nc1ccncc1)N(Cc1ccccc1)c1ccccc12` [compound 154] as the molecule, how does the IC50 ([1]; Table 5) read?
**A.** The IC50 was 6.7 µM.

**Q.** And the ED50 [3, 9]?
**A.** Its ED50 is > 10 mg/kg.
